These results are taken from the Biogen ADME set (Fang et al. 2023).

Each structure is given as a SMILES string. In brackets after ≈: the same amount, converted by molar mass. Where only a bound is given, the exact number is not on record here.

The conditions of this data set: for aqueous solubility: pH 6.8.

For the compound `Cc1cnc(CNCc2cccc3c2OCO3)s1`, the MDR1-MDCK efflux ratio came to 0.607; the intrinsic clearance, human liver microsomes is 33 mL/min/kg; the intrinsic clearance, rat liver microsomes stood at 204 mL/min/kg; the aqueous solubility worked out at 34.9 µg/mL (≈ 133 µM).

Turning to `CCCN(CCc1cccs1)[C@H]1CCc2c(O)cccc2C1`, the MDR1-MDCK efflux ratio worked out at 0.512; the intrinsic clearance, human liver microsomes was 98.1 mL/min/kg; the intrinsic clearance, rat liver microsomes was 3810 mL/min/kg.

With `CC(C)NC(=O)COc1cccc(-c2nc(Nc3ccc4[nH]ncc4c3)c3ccccc3n2)c1`, the MDR1-MDCK efflux ratio amounted to 20; the fraction unbound, human plasma is 0.00041; the fraction unbound, rat plasma came to 0.00313; the intrinsic clearance, human liver microsomes was 42.7 mL/min/kg. Moreover, the intrinsic clearance, rat liver microsomes stood at 1560 mL/min/kg.

With `C[C@]12C=CC(=O)C=C1CC[C@@H]1[C@@H]2[C@@H](O)C[C@@]2(C)[C@H]1CC[C@]2(O)C(=O)CO`, the MDR1-MDCK efflux ratio was 5.44; the intrinsic clearance, human liver microsomes was determined as 25.4 mL/min/kg; the intrinsic clearance, rat liver microsomes is 62.9 mL/min/kg.

For the compound `COCc1nn(CCCN2CCCCC2)c(=O)o1`, the MDR1-MDCK efflux ratio stood at 0.662; the intrinsic clearance, human liver microsomes is at most 4.74 mL/min/kg; the intrinsic clearance, rat liver microsomes is 370 mL/min/kg.

As to `CN1CCc2nc(NC(=O)c3ccc(Cl)s3)sc2C1`, the MDR1-MDCK efflux ratio was 0.586; the intrinsic clearance, human liver microsomes was 20 mL/min/kg; the intrinsic clearance, rat liver microsomes is 477 mL/min/kg; the aqueous solubility amounted to 48.8 µg/mL (≈ 155 µM).

`N#Cc1ccccc1CN1C(=O)CCC1=O` had an intrinsic clearance, human liver microsomes of at most 4.74 mL/min/kg and an intrinsic clearance, rat liver microsomes of 20.4 mL/min/kg.

For `CCc1ccc(-c2nccn2CC(=O)Nc2ccc(C)cc2F)nc1`, the MDR1-MDCK efflux ratio turned out to be 0.725; the intrinsic clearance, human liver microsomes came to 32.6 mL/min/kg; the intrinsic clearance, rat liver microsomes is 625 mL/min/kg; the aqueous solubility worked out at 28.3 µg/mL (≈ 83.5 µM).

With `CN1CCN(CCOc2ccccc2N)CC1`, the MDR1-MDCK efflux ratio is 0.548; the intrinsic clearance, human liver microsomes is 8.03 mL/min/kg; the intrinsic clearance, rat liver microsomes was found to be 130 mL/min/kg; the aqueous solubility was 38.1 µg/mL (≈ 162 µM).

As for `N#CCCCN1CCN(c2cc(C#N)ccn2)CC1`, the MDR1-MDCK efflux ratio came to 0.56; the intrinsic clearance, human liver microsomes was at most 4.74 mL/min/kg; the intrinsic clearance, rat liver microsomes was 180 mL/min/kg; the aqueous solubility was found to be 41.2 µg/mL (≈ 162 µM).

With `NC(=O)C1(CCCc2ccccn2)CCNCC1`, the intrinsic clearance, human liver microsomes is at most 4.74 mL/min/kg; the intrinsic clearance, rat liver microsomes turned out to be 84.3 mL/min/kg; the aqueous solubility was 38.7 µg/mL (≈ 156 µM).

As to `Cc1ccc(C(=O)Nc2cccc(C(=O)N(C)C)c2)cn1`, the MDR1-MDCK efflux ratio is 23.2; the intrinsic clearance, human liver microsomes was at most 4.74 mL/min/kg; the intrinsic clearance, rat liver microsomes was at most 10.7 mL/min/kg; the aqueous solubility was 45.3 µg/mL (≈ 160 µM).

As to `CCCCn1nc(-c2ccc(C)o2)nc1CNC`, the MDR1-MDCK efflux ratio is 1.32; the intrinsic clearance, human liver microsomes worked out at 14.3 mL/min/kg; the intrinsic clearance, rat liver microsomes is 239 mL/min/kg; the aqueous solubility is 29.3 µg/mL (≈ 118 µM).

For `O=C1CC2(CCN(C(=O)NCc3ccccc3)CC2)Oc2ccccc21`, the MDR1-MDCK efflux ratio came out at 3.06; the intrinsic clearance, human liver microsomes worked out at 21.7 mL/min/kg; the intrinsic clearance, rat liver microsomes was 619 mL/min/kg; the aqueous solubility was determined as 4.13 µg/mL (≈ 11.8 µM).

`COc1ccc2c(c1)C=C(CN1CCC(c3cc(-c4cncnc4)cc(C)n3)CC1)CO2`: the MDR1-MDCK efflux ratio was determined as 1.42; the intrinsic clearance, human liver microsomes is 49.8 mL/min/kg; the intrinsic clearance, rat liver microsomes is 201 mL/min/kg; the aqueous solubility is 22.9 µg/mL (≈ 53.3 µM).

Regarding `Cc1nnc(-c2ccccc2-c2ccc(O)cc2)s1`, the MDR1-MDCK efflux ratio was 1.3; the intrinsic clearance, human liver microsomes was found to be 14.6 mL/min/kg; the intrinsic clearance, rat liver microsomes stood at 397 mL/min/kg; the aqueous solubility was found to be 50.1 µg/mL (≈ 187 µM).

As for `CS(=O)(=O)NC[C@H]1CC[C@H](Nc2nc3c(s2)CCSc2ccccc2-3)CC1`, the MDR1-MDCK efflux ratio came to 1.81; the intrinsic clearance, human liver microsomes worked out at 21.5 mL/min/kg; the intrinsic clearance, rat liver microsomes was determined as 247 mL/min/kg.

With `Cc1nnc(NCc2cccnc2)c2ccccc12`, the MDR1-MDCK efflux ratio stood at 6.54; the intrinsic clearance, human liver microsomes stood at 5.21 mL/min/kg; the intrinsic clearance, rat liver microsomes was found to be 51.4 mL/min/kg; the aqueous solubility was 29.9 µg/mL (≈ 120 µM).

On to `O=C(CCc1nnc(-c2ccsc2)o1)N1CCCc2cc(F)c(F)cc21`, for which the MDR1-MDCK efflux ratio stood at 0.866; the intrinsic clearance, human liver microsomes turned out to be 108 mL/min/kg; the intrinsic clearance, rat liver microsomes was 1980 mL/min/kg; the aqueous solubility came to 2.08 µg/mL (≈ 5.54 µM).

In the case of `Cc1nnc(-c2ccccc2NCc2ccsc2)o1`, the MDR1-MDCK efflux ratio stood at 0.204 and the aqueous solubility was determined as 0.93 µg/mL (≈ 3.43 µM).

With `Cc1nc(NC(c2nccn2C)C2CC2)c2sccc2n1` (stereo unspecified), the MDR1-MDCK efflux ratio was 13.9; the intrinsic clearance, human liver microsomes turned out to be 43.7 mL/min/kg; the intrinsic clearance, rat liver microsomes was 319 mL/min/kg; the aqueous solubility was 51.3 µg/mL (≈ 171 µM).

In the case of `O=C(/C=C\n1cnc(-c2cc(C(F)(F)F)cc(C(F)(F)F)c2)n1)NNc1ccccn1`, the MDR1-MDCK efflux ratio turned out to be 1.08; the intrinsic clearance, human liver microsomes stood at 13.9 mL/min/kg; the intrinsic clearance, rat liver microsomes is 52.4 mL/min/kg.

Consider `Cc1cc(NCc2ccnc(N3CCCC3)c2)c2ccccc2n1`, for which the MDR1-MDCK efflux ratio stood at 17; the intrinsic clearance, human liver microsomes was found to be 23.8 mL/min/kg; the intrinsic clearance, rat liver microsomes is 5470 mL/min/kg; the aqueous solubility worked out at 32.2 µg/mL (≈ 101 µM).

In turn, `O=C(NCCc1cccc2cccnc12)C1CCCCC1` registered an intrinsic clearance, human liver microsomes of 158 mL/min/kg; an intrinsic clearance, rat liver microsomes of 906 mL/min/kg; an aqueous solubility of 41.7 µg/mL (≈ 148 µM).

For `O=C(CN1CCCC1=O)N1CCc2nc3sccc3c(=O)n2CC1`, the intrinsic clearance, human liver microsomes was at most 4.74 mL/min/kg and the intrinsic clearance, rat liver microsomes is at most 10.7 mL/min/kg.

On to `CS(=O)(=O)N1CCN(Cc2cc3c(cc2O)OCO3)CC1`, for which the intrinsic clearance, human liver microsomes was 28.6 mL/min/kg and the intrinsic clearance, rat liver microsomes was 278 mL/min/kg.

With `Cc1ccc(=O)n(CCOc2cc(F)cc(Br)c2)n1`, the MDR1-MDCK efflux ratio amounted to 0.596; the intrinsic clearance, human liver microsomes is 140 mL/min/kg; the intrinsic clearance, rat liver microsomes is 901 mL/min/kg.

As for `CCCCOc1nc(N)c2c(n1)N(Cc1cccc(CN3CCCC3)c1)CC(=O)N2`, the MDR1-MDCK efflux ratio was 5.49; the intrinsic clearance, human liver microsomes came to 113 mL/min/kg; the intrinsic clearance, rat liver microsomes was found to be 1870 mL/min/kg.

On to `CCNC(=O)c1noc(-c2cc(C(C)C)c(O)cc2O)c1-c1ccc(CN2CCOCC2)cc1`, for which the intrinsic clearance, human liver microsomes was 38.8 mL/min/kg and the intrinsic clearance, rat liver microsomes is 351 mL/min/kg.

As to `CN(Cc1nc(N)c2ccccc2n1)Cc1ccc(F)cc1F`, the MDR1-MDCK efflux ratio was 3.49; the intrinsic clearance, human liver microsomes was 54 mL/min/kg; the intrinsic clearance, rat liver microsomes was 1970 mL/min/kg; the aqueous solubility is 43.1 µg/mL (≈ 137 µM).

As to `CC(=O)NC1CCC(NCCSc2ccc(C)cc2)CC1` (stereo unspecified), the MDR1-MDCK efflux ratio was determined as 10.8; the intrinsic clearance, human liver microsomes turned out to be 64.4 mL/min/kg; the intrinsic clearance, rat liver microsomes was 499 mL/min/kg.

With `N#Cc1ccccc1OCc1csc(-c2ncccn2)n1`, the MDR1-MDCK efflux ratio is 0.59; the intrinsic clearance, human liver microsomes came to 31.1 mL/min/kg; the intrinsic clearance, rat liver microsomes amounted to 119 mL/min/kg; the aqueous solubility turned out to be 12.7 µg/mL (≈ 43.1 µM).

With `COCC1(C(=O)N(C)Cc2ccc3ccccc3n2)CCC1`, the MDR1-MDCK efflux ratio came out at 1.14; the intrinsic clearance, human liver microsomes was 59.9 mL/min/kg; the intrinsic clearance, rat liver microsomes was 4180 mL/min/kg.

`CCn1c(C(=O)N(C2CC2)C2CC2)cc2c3c(ncn3C)c(Nc3cc(C)n(C)n3)nc21`: the MDR1-MDCK efflux ratio was found to be 21; the intrinsic clearance, human liver microsomes is 11.3 mL/min/kg; the intrinsic clearance, rat liver microsomes came out at 20.1 mL/min/kg.

On to `CCN(C(=O)CO)[C@H]1CN(/C(=N\C#N)Nc2cccc(OC(F)F)c2)N=C1c1ccc(Cl)c(Cl)c1`, for which the intrinsic clearance, human liver microsomes was 45 mL/min/kg; the intrinsic clearance, rat liver microsomes was found to be 184 mL/min/kg; the aqueous solubility stood at 2.33 µg/mL (≈ 4.44 µM).

On to `O=C(CSc1nccn1C1CC1)Nc1c(Cl)cc(Cl)cc1C(=O)O`, for which the MDR1-MDCK efflux ratio was 8.29; the intrinsic clearance, human liver microsomes came to 41.6 mL/min/kg; the intrinsic clearance, rat liver microsomes is 204 mL/min/kg; the aqueous solubility stood at 2.43 µg/mL (≈ 6.29 µM).

With `N=C(NC(=O)OCc1ccccc1)c1ccc(CN)cc1`, the aqueous solubility is 30.6 µg/mL (≈ 108 µM).

For `Cc1cc(C(=O)NCCc2ccccn2)c(C)s1`, the MDR1-MDCK efflux ratio was 0.639; the intrinsic clearance, human liver microsomes amounted to 63.1 mL/min/kg; the intrinsic clearance, rat liver microsomes was 232 mL/min/kg; the aqueous solubility came out at 41.1 µg/mL (≈ 158 µM).

Regarding `Cc1cccc2cnc(C3CCN(C(=O)CCc4ccno4)CC3)cc12`, the intrinsic clearance, human liver microsomes stood at 31.2 mL/min/kg and the intrinsic clearance, rat liver microsomes was 729 mL/min/kg.

Consider `N#Cc1ccc2nc([C@H]3CCN(C4CCC4)C3)[nH]c2c1`, for which the MDR1-MDCK efflux ratio came to 4.41; the intrinsic clearance, human liver microsomes worked out at 7.26 mL/min/kg; the intrinsic clearance, rat liver microsomes is 68.4 mL/min/kg; the aqueous solubility stood at 50.2 µg/mL (≈ 188 µM).

Consider `CCNc1nc(-c2cccnc2)nc(C)c1C`, for which the MDR1-MDCK efflux ratio worked out at 0.577; the intrinsic clearance, human liver microsomes worked out at 49.7 mL/min/kg; the intrinsic clearance, rat liver microsomes was 69.8 mL/min/kg.

As for `Cc1cccc(NC(=O)c2noc3c2CCCC3)n1`, the intrinsic clearance, human liver microsomes came to 197 mL/min/kg; the intrinsic clearance, rat liver microsomes was 1070 mL/min/kg; the aqueous solubility stood at 17.1 µg/mL (≈ 66.3 µM).

Turning to `O=C(Nc1cccc(-c2cnco2)c1)C1(c2cccc(F)c2)CCOCC1`, the MDR1-MDCK efflux ratio turned out to be 2.37; the intrinsic clearance, human liver microsomes is 65.8 mL/min/kg; the intrinsic clearance, rat liver microsomes was 257 mL/min/kg; the aqueous solubility stood at 42.3 µg/mL (≈ 115 µM).

For the compound `CSCc1noc(COc2ccc(F)cc2F)n1`, the aqueous solubility is 17.3 µg/mL (≈ 63.5 µM).

Consider `CCc1nc(CN2CCC(=O)Nc3cc(F)ccc32)n[nH]1`, for which the MDR1-MDCK efflux ratio is 14.7; the intrinsic clearance, human liver microsomes was at most 4.74 mL/min/kg; the intrinsic clearance, rat liver microsomes amounted to 16.1 mL/min/kg.

`Cc1ccnc(NC(=O)CN(C)C(=O)c2ccc(Cl)cc2)c1`: the MDR1-MDCK efflux ratio worked out at 1.12; the intrinsic clearance, human liver microsomes was 16.5 mL/min/kg; the intrinsic clearance, rat liver microsomes turned out to be 156 mL/min/kg; the aqueous solubility was 63.3 µg/mL (≈ 199 µM).
